What was measured:
[1] = system: Trypanosoma brucei rhodesiense; assay: Antiparasitic activity against Trypanosoma brucei rhodesiense by Alamar blue assay; assay type: functional, organism-based
Trypanosoma cruzi = assay: Antiparasitic activity against Trypanosoma cruzi; assay type: functional, organism-based
Plasmodium falciparum = assay: Antiparasitic activity against Plasmodium falciparum; assay type: functional, organism-based
Leishmania donovani [2] = assay: Antileishmanial activity against Leishmania donovani axenic amastigotes; assay type: functional, organism-based
Leishmania donovani [3] = assay: Antileishmanial activity against Leishmania donovani in mouse macrophages; assay type: functional, organism-based
L6 = assay: Cytotoxicity against rat L6 cells by Alamar blue assay; assay type: cell-based
[4] = Selectivity index, ratio of IC50 for rat L6 cells to IC50 for Trypanosoma cruzi; assay type: functional
[5] = Selectivity index, ratio of IC50 for rat L6 cells to IC50 for Leishmania donovani in mouse macrophages; assay type: functional

C=CC(C#CC#CC(O)CCCCCCCCC)OC(C)=O (centres undefined)
IC50 [1]: 460 nM
IC50 (Trypanosoma cruzi): 650 nM
IC50 (Plasmodium falciparum): 1400 nM
IC50 (Leishmania donovani [2]): 130 nM
IC50 (Leishmania donovani [3]): 320 nM
IC50 (L6): 12000 nM
Ratio IC50 [4]: 18
Ratio IC50 [5]: 37

C=CC(C#CC#CC(O)CCCCCCCCCCOC(C)=O)OC(C)=O (centres undefined)
IC50 [1]: 1100 nM
IC50 (Trypanosoma cruzi): 400 nM
IC50 (Plasmodium falciparum): 2200 nM
IC50 (Leishmania donovani [2]): 140 nM
IC50 (Leishmania donovani [3]): 2300 nM
IC50 (L6): 58000 nM
Ratio IC50 [4]: 150
Ratio IC50 [5]: 26

CCCCCCCCCC(O)C#CC#CC(CC)OC(C)=O (centres undefined)
IC50 [1]: 18000 nM
IC50 (Trypanosoma cruzi): 26000 nM
IC50 (Plasmodium falciparum): 19000 nM
IC50 (Leishmania donovani [2]): 7800 nM
IC50 (Leishmania donovani [3]): > 10000 nM
IC50 (L6): 54000 nM
Ratio IC50 [4]: 2.1
Ratio IC50 [5]: <5.5

C[C@@H]1CC[C@H]2[C@@H](C)C(=O)O[C@@H]3O[C@@]4(C)CC[C@@H]1[C@]32OO4 [ARTEMISININ]
IC50 (Plasmodium falciparum): 4.3 nM

O=C(Cn1ccnc1[N+](=O)[O-])NCc1ccccc1 [BENZNIDAZOLE]
IC50 (Trypanosoma cruzi): 2400 nM

Nc1nc(N)nc(Nc2ccc([As]3SCC(CO)S3)cc2)n1 (centres undefined) [MELARSOPROL]
IC50 [1]: 5.8 nM

CCCCCCCCCCCCCCCCOP(=O)([O-])OCC[N+](C)(C)C [MILTEFOSINE]
IC50 (Leishmania donovani [3]): 710 nM
